According to patent US20240299353A1, “COMPOSITIONS AND METHODS FOR TREATING […] 5-MEO-DMT” (Alvarius Pharmaceuticals Ltd., priority 2021, published 2024):

Assays:
G9a = conditions: repeated cocaine; cited from earlier work
H3K9Me2 = conditions: repeated cocaine; cited from earlier work
[1] = test system: MAO-A and cytochrome P450 2D6 (CYP2D6); conditions: cited from earlier work
pCREB = assay: Western blot of pCREB in brain regions, chronic cocaine ± 5-MeO-DMT; format: in vivo, Male Wistar rats; conditions: for pCREB levels: 24 h
Description: (§1) Male Wistar rats aged 7 weeks were acclimatized to the facility for 1 week prior to the beginning of the study. […] Animals were euthanized 23- or 119-hours following vehicle or 5-MeO-DMT administration.
(§2) Following euthanasia brain regions of interest were isolated. Briefly, the olfactory bulbs were removed before the brain was placed in a rat brain matrix (FIG. 2A). Sterile blades were inserted at positions 2 and 3 (FIG. 2B) to extract a coronal slice containing the Bregma+˜0.2-+˜2.2 coordinates (FIG. 2C). From this tissue slice a blunted 12 G needle was used to punch dissect the NAc and dorsal striatum (DS) (FIG. 2D-2E) identified using the rat brain atlas (Panxinos and Watson 2nd edition). The PFC, hippocampus (Hip) and amygdala (Amyg) were then blunt dissected (FIG. 3A-3D). All regions were frozen in liquid nitrogen and stored at −80° C. until processed.
(§3) These treatment groups were used for the molecular assessment of addiction-linked markers.
(§4) Determination of protein concentration—a bicinchoninic acid assay (BCA, ThermoFisher) was conducted to determine the total protein concentration in tissue lysates following manufacturer's instructions. Briefly, bovine serum albumin (BSA) standards were prepared in a serial dilution (0-2.0 mg protein/ml) and 200 μl working reagent (50:1, reagent A: reagent B) was added to each of the standards and samples in a 96 well plate (Greiner). For tissue lysates a 1:10 dilution was performed with cell lysis buffer to ensure absorbance values lay within the working range established by the standards. All samples and standards were added in duplicate. The plate was covered and incubated for 30 mins at 37° C. before absorbance was read at 562 nm on a plate reader (SpectraMax M3). The absorbance values were used to form a standard curve of known protein concentrations and protein concentration of samples were derived using the equation of the line. All samples were standardized to the lowest protein concentration using distilled H20 (dH2O).
SDS-PAGE and Western Blotting—Following equalisation of protein concentrations, 6× sample loading buffer (15% SDS, 15% […], 50% glycerol, 0.01% bromophenol blue, […]) was added to each sample using a dilution factor of 1:5 of the total volumes before boiling at 100° C. for 5 mins. Samples were stored at −20° C. until use. One dimensional sodium-dodecyl-sulphate polyacrylamide gel electrophoresis (SDS-PAGE) was used for protein separation based on molecular weight. The percentage of acrylamide in the resolving or stacking gel was determined by the molecular weight of the protein of interest. […] Protein expression was quantified using Image Studio Lite (Version 5.2) and expression intensities were normalized to a house keeping protein, α-Tubulin or β-actin.

5-HT1AR = conditions: canonical signaling activity measured; read-out: affinity (Ki) for the 5-HT1AR subtype; cited from earlier work
5-HT2Rs = conditions: canonical signaling activity measured; read-out: affinity for the 5-HT2Rs; cited from earlier work
5-HT2AR = 5-HT2AR (Rattus norvegicus, UniProt P14842); conditions: read-out: Ki for the 5-HT2AR; non-canonical signaling, liberation of arachidonic acid; cited from earlier work
ΔFosB = assay: Western blot of ΔFosB in brain regions, chronic cocaine ± 5-MeO-DMT; format: in vivo, Male Wistar rats
Description: as §1, §2, §3, §4
SDS-PAGE and Western Blotting—Following equalisation of protein concentrations, 6× sample loading buffer (15% SDS, 15% […], 50% glycerol, 0.01% bromophenol blue, […]) was added to each sample using a dilution factor of 1:5 of the total volumes before boiling at 100° C. for 5 mins. Samples were stored at −20° C. until use. One dimensional sodium-dodecyl-sulphate polyacrylamide gel electrophoresis (SDS-PAGE) was used for protein separation based on molecular weight. The percentage of acrylamide in the resolving or stacking gel was determined by the molecular weight of the protein of interest. In this instance all gels consisted of a 5% stacking gel and a 10% resolving gel with the exception of mGluR5, G9a (8%) and H3K9Me2 (12%). 20 μg of protein was loaded and resolved using SDS-PAGE. Gel electrophoresis was conducted at 80V while the protein was in the stacking gel, once it migrated to the resolving gel the voltage was increased to 120V and ran for 90 mins. Samples were transferred to a 0.45 μm polyvinylidene difluoride (PVDF) membrane (Analab) for 1 hour at 100V and blocked in 5% milk blocking solution made in tris-buffered saline containing tween®-20 (TBS-T, Sigma) for 90 mins. Primary antibodies (FIG. 5) were diluted in 5% BSA in TBS-T and incubated with membranes overnight at 4° C. or for 2 hours at room temperature. After incubation with primary antibodies the membranes were washed in TBS-T for 4×10 minutes before incubation with 1:2000 anti-rabbit and 1:2000 anti-mouse Alexa Fluro® conjugated secondary antibodies (Invitrogen) in 2% milk for 1 hour at room temperature. Membranes were washed in TBS-T for 4×10 minutes and in TBS for 1×10-minute wash. Proteins were visualized using Odyssey® infrared imaging system. Protein expression was quantified using Image Studio Lite (Version 5.2) and expression intensities were normalized to a house keeping protein, α-Tubulin or β-actin.

[2] = acute administration in animals; cited from earlier work
[3] = cited from earlier work
[4] = test system: top 10 cocaine-dysregulated biological pathways in the hippocampus; assay: Biological pathway analysis (IPA) of transcriptomics, cocaine-dysregulated pathways; format: in vivo, Male Wister rats; conditions: single treatment
Description: Animals were then randomly allocated to one of five groups and received a single i.p. injection of one of vehicle, 5 mg/kg 5-Meo-DMT, 0.14 mg/kg LSD, 1 mg/kg psilocybin, or 1 mg/kg DOI. On day 15, animals were euthanised and the hippocampus blunt dissected, snap frozen in liquid nitrogen and stored at −80° C. until further processing.
Subsequent pathway analyses were done using Ingenuity Pathway Analysis (IPA). Analysis settings for IPA included the Ingenuity Knowledge Base (Genes Only), direct and indirect relationships, and endogenous chemicals of the previously filtered list of differentially expressed genes. IPA was filtered to only consider molecules where the species were human, rat, or mouse and the confidence can be experimentally observed. Canonical pathways were utilized in pathway analysis, where the spreadsheet organized the values of significance to −log(p-value) and the rate of regulation to the z-score. Negative z-score values indicate downregulation and positive values indicate upregulation.

5-HT2AR, sequence (P14842 whole entry): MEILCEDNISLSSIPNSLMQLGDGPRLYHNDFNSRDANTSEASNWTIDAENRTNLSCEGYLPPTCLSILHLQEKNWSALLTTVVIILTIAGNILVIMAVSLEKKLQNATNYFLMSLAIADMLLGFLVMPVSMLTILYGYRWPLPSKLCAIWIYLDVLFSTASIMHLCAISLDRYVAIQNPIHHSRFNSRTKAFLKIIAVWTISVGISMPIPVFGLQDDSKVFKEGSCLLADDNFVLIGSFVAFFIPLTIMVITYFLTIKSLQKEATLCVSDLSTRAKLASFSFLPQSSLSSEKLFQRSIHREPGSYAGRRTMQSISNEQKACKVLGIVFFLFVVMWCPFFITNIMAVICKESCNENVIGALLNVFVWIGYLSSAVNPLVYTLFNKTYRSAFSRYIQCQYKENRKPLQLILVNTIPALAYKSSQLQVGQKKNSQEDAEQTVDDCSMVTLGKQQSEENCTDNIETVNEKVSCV

Which “reduction in G9a expression” value (G9a) does the source give for `COC(=O)[C@H]1[C@@H](OC(=O)c2ccccc2)C[C@@H]2CC[C@H]1N2C.Cl` [cocaine, cocaine hydrochloride, reference compound] here?
The value was 19%.

And the “decrease in H3K9Me2 expression” value (H3K9Me2)?
Its value is 15%.

What does the source list for `COc1ccc2[nH]cc(CCN(C)C)c2c1` [5-MeO-DMT, 5-methoxy-N,N-dimethyltryptamine]?
primary metabolic pathways [1]: deamination by MAO-A and O-demethylation by cytochrome P450 2D6 (CYP2D6); pCREB levels (pCREB; PFC, cocaine+20 mg/kg 5-MeO-DMT relative to saline+20 mg/kg): decrease in pCREB; proportion of pCREB relative to total CREB (pCREB; PFC, 24 h and 120 h, all treatments): no change; pCREB levels (pCREB; amygdala, 20 mg/kg 5-MeO-DMT in saline-treated animals): increased; proportion of pCREB (pCREB; amygdala, 24 h and 120 h, any of the treatments): unchanged by any of the treatments; Ki (5-HT1AR): < 10 nM; Ki (5-HT2Rs): > 1000 nM; Ki (5-HT2AR): 190 nM; ΔFosB expression (ΔFosB; PFC, 24 h, cocaine alone or 5-MeO-DMT alone): Neither treatment changes expression alone; ΔFosB expression (ΔFosB; PFC, 24 h, cocaine+10 mg/kg 5-MeO-DMT): increases expression relative to 10 mg/kg 5-MeO-DMT alone; ΔFosB expression (ΔFosB; PFC, 24 h, cocaine+20 mg/kg 5-MeO-DMT (increase seen with 10 mg/kg)): not replicated; ΔFosB expression (ΔFosB; amygdala, 24 h, 5-MeO-DMT alone): no effect; ΔFosB expression (ΔFosB; amygdala, 24 h, cocaine+20 mg/kg 5-MeO-DMT): normalized levels in the cocaine treated animals comparable to the control group; ΔFosB expression (ΔFosB; amygdala, 120 h, 20 mg/kg 5-MeO-DMT relative to control): dose-dependent increase; ΔFosB expression (ΔFosB; dorsal striatum, 24 h, 5-MeO-DMT alone): does not regulate the expression; ΔFosB expression (ΔFosB; dorsal striatum, 24 h, cocaine+10 mg/kg 5-MeO-DMT relative to control): significant increase in ΔFosB expression; ΔFosB expression (ΔFosB; dorsal striatum, 24 h, cocaine+20 mg/kg 5-MeO-DMT): returns the cocaine-induced increase in ΔFosB to levels comparable with control; ΔFosB expression (ΔFosB; dorsal striatum, 120 h, irrespective of the treatment group): no change in expression levels; ΔFosB expression (ΔFosB; nucleus accumbens, 24 h, cocaine+20 mg/kg 5-MeO-DMT): expression levels remain elevated in the combo group relative to control; ΔFosB expression (ΔFosB; nucleus accumbens, 24 h, saline+10 mg/kg 5-MeO-DMT): increased; ΔFosB expression (ΔFosB; nucleus accumbens, 24 h, saline+20 mg/kg 5-MeO-DMT): increased; ΔFosB expression (ΔFosB; nucleus accumbens, 120 h, 5-MeO-DMT alone): does not persist to 120 hours; acute toxic signs [2]: dose-dependently produce ataxia, mydriasis, head nodding, tremor, convulsion and shivering; blood-brain barrier passage ([3]; rat brain regions): readily crosses the blood-brain barrier; brain drug concentrations with increase in dose ([3]; throughout the brain): increased non-proportionally; number of the top 10 dysregulated pathways corrected [4]: 9 pathways; top 10 cocaine-dysregulated biological pathways corrected [4]: 90%
